# Data as given in PubChem BioAssay AID977605 (Broad Institute, 2014).
# Calls of active or inactive are those of the source.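 How the source made its calls: active means fitted curve reaches 40% activation below the top valid tested dose, in every test run; inconclusive means test runs disagree on the call; inactive means the rest, including effects opposite to the expected direction.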
# Assay: endothelial E-selectin upregulation by compounds – imaging, HUVEC, cherry-picked samples, dose response (AID 977605);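 further: signal is the share of imaged cells scored positive for E-selectin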
# Conditions: HUVEC E-selectin immunostaining, at 19.5 µM (top of the series)
row,SMILES,activation
1,Cc1ccc(OC(F)F)c(N2C(=O)C3C4CCC(O4)C3C2=O)c1 (stereo not drawn),-0.065% (inactive)
2,CN1CCN(c2cn[nH]c(=O)c2Cl)CC1,-0.235% (inactive)

# Same assay, conditions: HUVEC E-selectin immunostaining, at 19.5 µM (top of the series), percent of TNF-alpha response over vehicle
row,SMILES,activation
1,CC(C)NC(=O)N(C)C[C@@H]1Oc2ccc(NC(=O)CCC(F)(F)F)cc2CC(=O)N([C@@H](C)CO)C[C@H]1C,0.007% (inactive)
2,CCCCSCCCNC(=O)C1CCC(CNS(=O)(=O)c2ccc(NC(C)=O)cc2)CC1 (stereo not drawn),0.405% (inactive)
3,C[C@H]1CN([C@@H](C)CO)C(=O)c2cc(NC(=O)Nc3ccc(F)cc3)ccc2O[C@H]1CN(C)S(C)(=O)=O,4.69% (inactive)
4,C[C@H]1CN([C@@H](C)CO)C(=O)c2cc(NC(=O)CCN3CCOCC3)ccc2O[C@H]1CN(C)S(C)(=O)=O,-0.165% (inactive)
5,C[C@@H]1CN([C@H](C)CO)C(=O)c2cc(NC(=O)CCN3CCOCC3)ccc2O[C@@H]1CN(C)Cc1ccc(C(F)(F)F)cc1,-0.028% (inactive)
6,O=S(=O)(NCc1cccnc1)c1ccc(Cl)c2ccccc12,0.304% (inactive)
7,Cc1ccc(CNS(=O)(=O)c2ccc(C(F)(F)F)cc2)n1C,-0.139% (inactive)
8,C[C@H](CO)N1C[C@H](C)[C@@H](CN(C)S(C)(=O)=O)Oc2ccc(NC(=O)CCCCCC(=O)Nc3ccccc3N)cc2CC1=O,0.149% (inactive)
9,C[C@H](CO)N1C[C@H](C)[C@H](CN(C)Cc2ccc(Oc3ccccc3)cc2)Oc2c(NC(=O)C3CCOCC3)cccc2C1=O,6.04% (inactive)
10,C[C@H](CO)N1C[C@H](C)[C@H](CN(C)C(=O)Nc2cccc3ccccc23)Oc2ccc(NS(C)(=O)=O)cc2C1=O,0.267% (inactive)
11,CCCN1[C@H](CO)[C@H](c2ccc(C#Cc3ccccc3)cc2)[C@@H]1CNC1CCCC1,4.52% (inactive)
12,COc1ccc(NS(=O)(=O)c2ccc3c(c2)CCCN3C(C)=O)cc1,-0.06% (inactive)
13,O=C(NC(=S)N1CCN(c2ccc([N+](=O)[O-])cc2)CC1)c1ccccc1,-0.117% (inactive)
14,CC1CN(S(=O)(=O)c2ccc(F)cc2)C(C)N1C(=O)N1CCOCC1 (stereo not drawn),-0.215% (inactive)
15,C[C@H]1CN([C@@H](C)CO)C(=O)Cc2cc(NC(=O)Nc3ccccc3)ccc2O[C@H]1CN(C)C,0.067% (inactive)
16,CCCNC(=O)N(C)C[C@@H]1Oc2ncc(C3=CCCC3)cc2C(=O)N([C@H](C)CO)C[C@H]1C,0.267% (inactive)
17,C[C@H]1CN([C@@H](C)CO)C(=O)c2cc(NS(C)(=O)=O)ccc2O[C@@H]1CN(C)Cc1ccc(Cl)c(Cl)c1,-0.025% (inactive)
18,NS(=O)(=O)c1ccc(NC(=O)CCC(=O)N2CCOCC2)cc1,0.021% (inactive)
19,Cc1noc(C)c1S(=O)(=O)Nc1ccc2c(c1)CC(=O)N([C@H](C)CO)C[C@H](C)[C@@H](CN(C)C(=O)Nc1cccc3ccccc13)O2,-0.095% (inactive)
20,C[C@@H]1CN([C@H](C)CO)C(=O)c2cccc(NS(=O)(=O)c3cn(C)cn3)c2O[C@@H]1CN(C)Cc1ccc(Cl)c(Cl)c1,0.02% (inactive)
21,O=C(C1CCCN(c2nnc(-n3cccc3)s2)C1)N1CCN(c2ccccc2)CC1 (stereo not drawn),0.14% (inactive)
22,C[C@@H]1CN([C@H](C)CO)S(=O)(=O)c2ccc(-c3ccc(F)cc3)cc2O[C@@H]1CN(C)CC1CC1,0.158% (inactive)
23,CSc1nc2c(cnn2-c2ccc(C)c(C)c2)c(=O)[nH]1,0.487% (inactive)
24,C[C@@H]1CN([C@@H](C)CO)C(=O)c2cccc(NS(=O)(=O)c3cn(C)cn3)c2O[C@H]1CN(C)C(=O)Nc1ccc2c(c1)OCO2,-0.015% (inactive)
25,C[C@@H]1CN([C@@H](C)CO)C(=O)c2cc(NC(=O)Cc3cn(C)c4ccccc34)ccc2O[C@H]1CN(C)Cc1ccc2c(c1)OCO2,-0.066% (inactive)
26,CC(C)C(c1nnnn1C1CCCCC1)N1CCN(C(=O)c2ccco2)CC1 (stereo not drawn),-0.112% (inactive)

row,SMILES,activation
1,COc1ccc(S(=O)(=O)Nc2ccc3c(c2)C(=O)N([C@@H](C)CO)C[C@H](C)[C@@H](CN(C)Cc2ccc(Cl)c(Cl)c2)O3)cc1,-0.097% (inactive)
2,CCOC(=O)[C@]12CCCC=C1N(CCC1=CCCCC1)C(=O)[C@H](CC(=O)NCCC(C)C)C2,7.1% (inactive)
3,C[C@@H]1CN([C@@H](C)CO)C(=O)c2cc(NC(=O)Cc3ccccc3)ccc2O[C@@H]1CN(C)C(=O)Nc1cccc2ccccc12,-0.101% (inactive)
4,NC(=O)C1CCN(c2nc(-c3ccccc3-c3ccccc3)cs2)CC1,0.136% (inactive)
5,C[C@H](CO)N1C[C@H](C)[C@H](CN(C)C(=O)Nc2ccccc2)Oc2ccc(NS(C)(=O)=O)cc2C1=O,-0.163% (inactive)
6,Cc1noc(C)c1S(=O)(=O)Nc1ccc2c(c1)CC(=O)N([C@H](C)CO)C[C@@H](C)[C@H](CN(C)C(=O)Nc1cccc3ccccc13)O2,-0.155% (inactive)
7,C[C@@H]1CN([C@@H](C)CO)C(=O)Cc2cc(NS(C)(=O)=O)ccc2O[C@@H]1CN(C)S(=O)(=O)c1cn(C)cn1,-0.013% (inactive)
8,C[C@H]1CN([C@@H](C)CO)C(=O)Cc2cc(NC(=O)NC3CCCCC3)ccc2O[C@@H]1CN(C)Cc1ccc(Cl)c(Cl)c1,0.088% (inactive)
9,C[C@H](CO)N1C[C@H](C)[C@@H](CN(C)Cc2ccc(-c3ccccc3)cc2)Oc2c(NC(=O)Nc3cccc4ccccc34)cccc2C1=O,1.82% (inactive)
10,CCCN1CCN(C(=O)c2ccc(CS(=O)c3ccc(Cl)cc3)o2)CC1 (stereo not drawn),0.214% (inactive)
11,C[C@@H]1CN([C@H](C)CO)C(=O)c2cccc(NC(=O)C3CCOCC3)c2O[C@@H]1CN(C)Cc1ccc(Oc2ccccc2)cc1,0.031% (inactive)
12,CN(C)c1cccc(C(=O)NCc2ccc3c(c2)OCO3)c1,8.26% (inactive)
13,CCOC(=O)c1cccc(NC(=O)Nc2ccc3c(c2)C(=O)OC3)c1,0.013% (inactive)
14,C[C@@H]1CN([C@H](C)CO)C(=O)c2cc(NS(=O)(=O)c3ccccc3)ccc2O[C@H]1CN(C)C(=O)NC1CCCCC1,0.289% (inactive)
15,OC(CSc1ccc(F)cc1)CN1CCN(c2ccccc2)CC1 (stereo not drawn),-0.165% (inactive)
16,CNC[C@H]1Oc2ccc(N(C)C)cc2C(=O)N([C@@H](C)CO)C[C@H]1C,0.27% (inactive)
17,COc1ccccc1N1CCN(C(=O)c2ccco2)CC1,1.75% (inactive)
18,O=S(=O)(Nc1cccc(Oc2cnccn2)c1)c1ccc(F)cc1,0.221% (inactive)
19,C[C@@H]1CN([C@@H](C)CO)C(=O)Cc2cc(NC(=O)Nc3ccc(F)cc3)ccc2O[C@@H]1CN(C)S(=O)(=O)c1cn(C)cn1,-0.041% (inactive)
20,C[C@@H]1CN([C@H](C)CO)C(=O)Cc2cc(NS(=O)(=O)c3ccc(F)cc3)ccc2O[C@@H]1CN(C)S(=O)(=O)c1ccc(Cl)cc1,1.34% (inactive)
21,C[C@@H]1CN([C@H](C)CO)C(=O)Cc2cc(NS(C)(=O)=O)ccc2O[C@H]1CN(C)S(=O)(=O)c1cn(C)cn1,-0.104% (inactive)
22,O=C(Cc1ccc(-n2c(=O)c3sccc3n(Cc3ccc(F)cc3)c2=O)cc1)NCc1ccco1,0.008% (inactive)
23,C[C@H](CO)N1C[C@H](C)[C@H](CN(C)C(=O)c2ccc3c(c2)OCO3)Oc2cc(-c3ccccc3)ccc2S1(=O)=O,-0.242% (inactive)
24,C[C@@H]1CN([C@@H](C)CO)C(=O)Cc2cc(NC(=O)Cc3ccccc3)ccc2O[C@H]1CN(C)C(=O)Nc1cccc2ccccc12,-0.158% (inactive)
25,C[C@@H]1CN([C@H](C)CO)C(=O)c2cc(NC(=O)CCCCCC(=O)Nc3ccccc3N)ccc2O[C@@H]1CN(C)C(=O)Nc1ccc2c(c1)OCO2,-0.103% (inactive)

# Same assay, conditions: HUVEC E-selectin immunostaining, at 21 µM (top of the series), percent of TNF-alpha response over vehicle
row,SMILES,activation
1,COc1ccc(S(=O)(=O)Nc2cccc3c2O[C@H](CN(C)C(=O)Nc2c(C)noc2C)[C@@H](C)CN([C@@H](C)CO)C3=O)cc1,-0.092% (inactive)
2,COc1ccc(NC(=O)Nc2ccc3c(c2)C(=O)N([C@@H](C)CO)C[C@@H](C)[C@@H](CN(C)S(=O)(=O)c2ccc(F)cc2)O3)cc1,0.213% (inactive)
3,CC(C)NC(=O)Nc1ccc2c(c1)CC(=O)N([C@H](C)CO)C[C@H](C)[C@@H](CN(C)Cc1ccc(C(=O)O)cc1)O2,-0.068% (inactive)
4,C[C@H]1CN([C@@H](C)CO)C(=O)c2cccc(NC(=O)Nc3ccc(F)cc3)c2O[C@@H]1CN(C)C(=O)NC1CCCCC1,0.342% (inactive)
5,C[C@H](CO)N1C[C@H](C)[C@@H](CN(C)C)Oc2c(NC(=O)CCCCCC(=O)Nc3ccccc3N)cccc2C1=O,-0.097% (inactive)
6,Cc1noc(C)c1S(=O)(=O)Nc1ccc2c(c1)CC(=O)N([C@H](C)CO)C[C@H](C)[C@@H](CN(C)Cc1ccc(-c3ccccc3)cc1)O2,-0.276% (inactive)
7,C[C@H]1CN([C@@H](C)CO)C(=O)Cc2cc(NC(=O)Nc3ccc4c(c3)OCO4)ccc2O[C@H]1CN(C)S(=O)(=O)c1cn(C)cn1,-0.009% (inactive)
8,C[C@H]1CN([C@@H](C)CO)C(=O)c2cc(NS(=O)(=O)c3cccs3)ccc2O[C@H]1CN(C)S(C)(=O)=O,0.402% (inactive)
9,CC(C)NC(=O)N(C)C[C@@H]1Oc2c(NC(=O)c3ccc(-c4nccs4)cc3)cccc2C(=O)N([C@@H](C)CO)C[C@@H]1C,-0.199% (inactive)
10,C[C@@H]1CN([C@H](C)CO)C(=O)c2cc(NC(=O)Nc3ccc4c(c3)OCO4)ccc2O[C@H]1CN(C)S(=O)(=O)c1ccccc1,-0.095% (inactive)
11,COc1ccc(S(=O)(=O)Nc2ccc3c(c2)C(=O)N([C@@H](C)CO)C[C@H](C)[C@H](CN(C)S(=O)(=O)c2ccc(Cl)cc2)O3)cc1,0.145% (inactive)
12,C[C@@H]1CN([C@@H](C)CO)C(=O)c2cc(NS(=O)(=O)c3cn(C)cn3)ccc2O[C@H]1CN(C)C(=O)Nc1ccc(F)cc1,0.066% (inactive)
13,CC(C)NC(=O)N(C)C[C@H]1Oc2c(NC(=O)CCCCCC(=O)Nc3ccccc3N)cccc2C(=O)N([C@@H](C)CO)C[C@H]1C,-0.093% (inactive)
14,COc1ccc(CN(C)C[C@@H]2Oc3ccc(NC(=O)c4ccncc4)cc3C(=O)N([C@H](C)CO)C[C@H]2C)cc1,0.114% (inactive)
15,C[C@@H]1CN([C@H](C)CO)C(=O)c2cccc(NC(=O)Nc3ccc4c(c3)OCO4)c2O[C@H]1CN(C)C(=O)Nc1ccc(C(F)(F)F)cc1,0.262% (inactive)
